Legend:
Assay type in all cases: in vivo
[1] = tested on: barnyardgrass (Echinochloa crus-galli); assay: Test A preemergence, visual plant response rating; conditions: for Barnyardgrass plant response rating: preemergence, 0 to 100 scale, 0 no effect, 100 complete control; for Barnyardgrass plant response rating (0 to 100 scale): 500 g ai/ha Preemergence, approx. 10 days
In short: (§1)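 Greenhouse evaluation, approx. 10 days post-spray. Soil: loam + sand. Postemergence stage: 1–2 leaves, height 2–10 cm. Vehicle: non-phytotoxic solvent blend with surfactant. Score: visual injury on a 0 (no effect) to 100 (complete control) scale.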

[2] = tested on: Italian ryegrass (Lolium multiflorum); assay: Test A preemergence, visual plant response rating; conditions: for Ryegrass, Italian plant response rating: preemergence, 0 to 100 scale, 0 no effect, 100 complete control; for Ryegrass, Italian plant response rating (0 to 100 scale): 500 g ai/ha Preemergence, approx. 10 days
In short: as §1

[3] = tested on: foxtail, giant (giant foxtail, Setaria faberii); assay: Test A preemergence, visual plant response rating; conditions: for Foxtail, Giant plant response rating: preemergence, 0 to 100 scale, 0 no effect, 100 complete control; for Foxtail, Giant plant response rating (0 to 100 scale): 500 g ai/ha Preemergence, approx. 10 days
In short: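 Preemergence: seeds in loam/sand blend given directed soil spray of compound in non-phytotoxic solvent with surfactant. Postemergence: plants 2–10 cm, one- to two-leaf stage, sprayed with same formulation. Visual injury rated vs untreated controls after ~10 days in greenhouse, 0 (no effect) to 100 (complete control).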

[4] = tested on: pigweed (Amaranthus retroflexus); assay: Test A preemergence, visual plant response rating; conditions: for Pigweed plant response rating: preemergence, 0 to 100 scale, 0 no effect, 100 complete control; for Pigweed plant response rating (0 to 100 scale): 500 g ai/ha Preemergence, approx. 10 days
In short: as §1

kochia (Kochia scoparia) [5] = assay: Test A preemergence, visual plant response rating; conditions: for Kochia plant response rating (0 to 100 scale): 500 g ai/ha Preemergence, approx. 10 days; for Kochia plant response rating: preemergence, 0 to 100 scale, 0 no effect, 100 complete control
In short: as §1

[6] = tested on: ragweed (common ragweed, Ambrosia elatior); assay: Test A preemergence, visual plant response rating; conditions: for Ragweed plant response rating: preemergence, 0 to 100 scale, 0 no effect, 100 complete control; for Ragweed plant response rating (0 to 100 scale): 500 g ai/ha Preemergence, approx. 10 days
In short: as §1

[7] = tested on: barnyardgrass (Echinochloa crus-galli); assay: Test A postemergence, visual plant response rating; conditions: for Barnyardgrass plant response rating: Postemergence, 125 g ai/ha, 0 to 100 scale (0 no effect, 100 complete control)
In short: as §1

[8] = tested on: Italian ryegrass (Lolium multiflorum); assay: Test A postemergence, visual plant response rating; conditions: for Ryegrass, Italian plant response rating: Postemergence, 125 g ai/ha, 0 to 100 scale (0 no effect, 100 complete control)
In short: as §1

[9] = tested on: foxtail, giant (giant foxtail, Setaria faberii); assay: Test A postemergence, visual plant response rating; conditions: for Foxtail, Giant plant response rating: Postemergence, 125 g ai/ha, 0 to 100 scale (0 no effect, 100 complete control)
In short: as §1

[10] = tested on: pigweed (Amaranthus retroflexus); assay: Test A postemergence, visual plant response rating; conditions: for Pigweed plant response rating: Postemergence, 125 g ai/ha, 0 to 100 scale (0 no effect, 100 complete control)
In short: as §1

corn (Zea mays) = assay: Test A postemergence, visual plant response rating; conditions: for Corn plant response rating: Postemergence, 125 g ai/ha, 0 to 100 scale (0 no effect, 100 complete control)
In short: as §1

[11] = tested on: wheat (Triticum aestivum); assay: Test A postemergence, visual plant response rating; conditions: for Wheat plant response rating: Postemergence, 125 g ai/ha, 0 to 100 scale (0 no effect, 100 complete control)
In short: as §1

kochia (Kochia scoparia) [12] = assay: Test A postemergence, visual plant response rating; conditions: for Kochia plant response rating: Postemergence, 125 g ai/ha, 0 to 100 scale (0 no effect, 100 complete control)
In short: as §1

[13] = tested on: blackgrass (Alopecurus myosuroides); assay: Test A postemergence, visual plant response rating; conditions: for Blackgrass plant response rating: Postemergence, 125 g ai/ha, 0 to 100 scale (0 no effect, 100 complete control)
In short: as §1

[14] = tested on: galium (catchweed bedstraw, Galium aparine); assay: Test A postemergence, visual plant response rating; conditions: for Galium plant response rating: Postemergence, 125 g ai/ha, 0 to 100 scale (0 no effect, 100 complete control)
In short: as §1

[15] = tested on: ragweed (common ragweed, Ambrosia elatior); assay: Test A postemergence, visual plant response rating; conditions: for Ragweed plant response rating: Postemergence, 125 g ai/ha, 0 to 100 scale (0 no effect, 100 complete control)
In short: as §1

[16] = tested on: barnyardgrass (Echinochloa crus-galli); assay: Test B flooded paddy test, visual plant response rating; conditions: 250 g ai/ha, Flood, applied to paddy water, 2-leaf stage, evaluated after 13 to 15 days
In short: (§2)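 Flooded-pot treatment: water 3 cm over the soil, chemical delivered into that water, depth unchanged for the duration. Assessed by eye versus controls following 13–15 greenhouse days; plants were at 2 leaves when dosed.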

rice (Oryza sativa) = assay: as above; conditions: 250 g ai/ha, Flood, applied to paddy water, 2-leaf stage, evaluated after 13 to 15 days
In short: as §2

[17] = tested on: sedge, umbrella (small-flower umbrella sedge, Cyperus difformis); assay: as above; conditions: 250 g ai/ha, Flood, applied to paddy water, 2-leaf stage, evaluated after 13 to 15 days
In short: as §2

[18] = tested on: ducksalad (Heteranhera limosa); assay: as above; conditions: 250 g ai/ha, Flood, applied to paddy water, 2-leaf stage, evaluated after 13 to 15 days
In short: as §2

[19] = 500 g ai/ha, postemergence, 0 is no effect, 100 is complete control
[20] = 31 g ai/ha Postemergence, approx. 10 days

| SMILES | Barnyardgrass plant response rating ([1]; 125 g ai/ha) | Barnyardgrass plant response rating (0 to 100 scale) [1] | Ryegrass, Italian plant response rating ([2]; 125 g ai/ha) | Foxtail, Giant plant response rating ([3]; 125 g ai/ha) | Pigweed plant response rating ([4]; 125 g ai/ha) | Ragweed plant response rating ([6]; 125 g ai/ha) | Barnyardgrass plant response rating [7] | Ryegrass, Italian plant response rating [8] | Foxtail, Giant plant response rating [9] | Pigweed plant response rating [10] | Corn plant response rating (corn (Zea mays)) | Wheat plant response rating [11] | Kochia plant response rating (kochia (Kochia scoparia) [12]) | Blackgrass plant response rating [13] | Galium plant response rating [14] | Ragweed plant response rating [15] | Plant response rating, Barnyardgrass (0 to 100 scale, 0 is no effect, 100 is complete control) [16] | Plant response rating, Rice (0 to 100 scale, 0 is no effect, 100 is complete control) (rice (Oryza sativa)) | Plant response rating, Sedge, Umbrella (0 to 100 scale, 0 is no effect, 100 is complete control) [17] | Plant response rating, Ducksalad (0 to 100 scale, 0 is no effect, 100 is complete control) [18] | further results |
| --- | --- | --- | --- | --- | --- | --- | --- | --- | --- | --- | --- | --- | --- | --- | --- | --- | --- | --- | --- | --- | --- |
| C=CCON=C(c1c(O)c(C)nn(C)c1=O)c1cc(Br)cc2ccccc12 [Compound 115] | 90 | 100 | 80 | 90 | 30 | 90 | 80 | 80 | 90 | 60 | 20 | 20 | 30 | 80 | 100 | 90 | 75 | 35 | 85 | 80 | Ryegrass, Italian plant response rating (0 to 100 scale) [2]: 90; Foxtail, Giant plant response rating (0 to 100 scale) [3]: 100; Pigweed plant response rating (0 to 100 scale) [4]: 90; Kochia plant response rating (0 to 100 scale) (kochia (Kochia scoparia) [5]): 10; Ragweed plant response rating (0 to 100 scale) [6]: 90; Barnyardgrass plant response rating (0 to 100 scale) [7, 19]: 90; Ryegrass, Italian plant response rating (0 to 100 scale) [8, 19]: 90; Foxtail, Giant plant response rating (0 to 100 scale) [9, 19]: 90; Pigweed plant response rating (0 to 100 scale) [10, 19]: 90; Corn plant response rating (0 to 100 scale) (corn (Zea mays); [19]): 70; Wheat plant response rating (0 to 100 scale) [11, 19]: 40; Kochia plant response rating (0 to 100 scale) (kochia (Kochia scoparia) [12]; [19]): 60; Blackgrass plant response rating (0 to 100 scale) [13, 19]: 90; Galium plant response rating (0 to 100 scale) [14, 19]: 100; Ragweed plant response rating (0 to 100 scale) [15, 19]: 100 |
| C#CCON=C(c1c(O)c(C)nn(C)c1=O)c1cc(Br)cc2ccccc12 [Compound 116] | 100 | 100 | 100 | 90 | 100 | 90 | 90 | 90 | 90 | 90 | 30 | 50 | 60 | 100 | 100 | 100 | 55 | 5 | 30 | 60 | Ryegrass, Italian plant response rating (0 to 100 scale) [2]: 100; Foxtail, Giant plant response rating (0 to 100 scale) [3]: 100; Pigweed plant response rating (0 to 100 scale) [4]: 100; Kochia plant response rating (kochia (Kochia scoparia) [5]; 125 g ai/ha): 10; Kochia plant response rating (0 to 100 scale) (kochia (Kochia scoparia) [5]): 100; Ragweed plant response rating (0 to 100 scale) [6]: 90; Barnyardgrass plant response rating (0 to 100 scale) [7, 19]: 90; Ryegrass, Italian plant response rating (0 to 100 scale) [8, 19]: 100; Foxtail, Giant plant response rating (0 to 100 scale) [9, 19]: 90; Pigweed plant response rating (0 to 100 scale) [10, 19]: 100; Corn plant response rating (0 to 100 scale) (corn (Zea mays); [19]): 80; Wheat plant response rating (0 to 100 scale) [11, 19]: 60; Kochia plant response rating (0 to 100 scale) (kochia (Kochia scoparia) [12]; [19]): 80; Blackgrass plant response rating (0 to 100 scale) [13, 19]: 100; Galium plant response rating (0 to 100 scale) [14, 19]: 100; Ragweed plant response rating (0 to 100 scale) [15, 19]: 100 |
| CON=C(c1c(O)c(C)nn(C)c1=O)c1cccc2cc(F)ccc12 [Compound 119] | 50 | 80 | 30 | 80 | 80 | 90 | 70 | 80 | 70 | 80 | 10 | 0 | 70 | 80 | 80 | 90 | 0 | 0 | 0 | 0 | Ryegrass, Italian plant response rating (0 to 100 scale) [2]: 100; Foxtail, Giant plant response rating (0 to 100 scale) [3]: 100; Pigweed plant response rating (0 to 100 scale) [4]: 100; Kochia plant response rating (kochia (Kochia scoparia) [5]; 125 g ai/ha): 30; Kochia plant response rating (0 to 100 scale) (kochia (Kochia scoparia) [5]): 80; Ragweed plant response rating (0 to 100 scale) [6]: 90; Barnyardgrass plant response rating (0 to 100 scale) [7, 19]: 80; Ryegrass, Italian plant response rating (0 to 100 scale) [8, 19]: 90; Foxtail, Giant plant response rating (0 to 100 scale) [9, 19]: 80; Pigweed plant response rating (0 to 100 scale) [10, 19]: 90; Corn plant response rating (0 to 100 scale) (corn (Zea mays); [19]): 40; Wheat plant response rating (0 to 100 scale) [11, 19]: 0; Kochia plant response rating (0 to 100 scale) (kochia (Kochia scoparia) [12]; [19]): 70; Blackgrass plant response rating (0 to 100 scale) [13, 19]: 90; Galium plant response rating (0 to 100 scale) [14, 19]: 100; Ragweed plant response rating (0 to 100 scale) [15, 19]: 90 |
| CON=C(c1c(OC(C)=O)c(C)nn(C)c1=O)c1cccc2ccccc12 [Compound 120] | 10 |  | 10 | 50 | 100 | 10 | 20 | 30 | 40 | 50 | 0 | 0 | 30 | 20 | 80 | 20 | 0 | 0 | 0 | 0 | Barnyardgrass plant response rating ([1]; 31 g ai/ha): 0; Ryegrass, Italian plant response rating ([2]; 31 g ai/ha): 0; Foxtail, Giant plant response rating ([3]; 31 g ai/ha): 20; Pigweed plant response rating ([4]; 31 g ai/ha): 60; Kochia plant response rating (kochia (Kochia scoparia) [5]; 31 g ai/ha): 0; Kochia plant response rating (kochia (Kochia scoparia) [5]; 125 g ai/ha): 10; Ragweed plant response rating ([6]; 31 g ai/ha): 0; Barnyardgrass plant response rating (0 to 100 scale) [7, 20]: 0; Ryegrass, Italian plant response rating (0 to 100 scale) [8, 20]: 0; Foxtail, Giant plant response rating (0 to 100 scale) [9, 20]: 0; Pigweed plant response rating (0 to 100 scale) [10, 20]: 30; Corn plant response rating (0 to 100 scale) (corn (Zea mays); [20]): 0; Wheat plant response rating (0 to 100 scale) [11, 20]: 0; Kochia plant response rating (0 to 100 scale) (kochia (Kochia scoparia) [12]; [20]): 10; Blackgrass plant response rating (0 to 100 scale) [13, 20]: 0; Galium plant response rating (0 to 100 scale) [14, 20]: 40; Ragweed plant response rating (0 to 100 scale) [15, 20]: 0 |
